Patent US20250073244A1, “CRYSTALLINE FORMS OF PENTAAZA MACROCYCLIC RING COMPLEX” (Galera Labs, LLC, priority 2023, published 2025)

Legend:
Format in all cases: physicochemical
[1] = Form E generation attempts via desolvation or heating
From the text: These attempts were not successful in providing Form E as a pure crystalline phase. Mixtures primarily composed of Form E and other unidentified crystalline phase(s) were obtained (FIG. 42).
Heat induced crystallization of amorphous GC4711 is described in Table 50.

[2] = Differential scanning calorimetry (DSC); conditions: −30 to 250° C.
Method: DSC was performed using a Mettler-Toledo DSC3+ differential scanning calorimeter. A tau lag adjustment is performed with indium, tin, and zinc. The temperature and enthalpy are adjusted with octane, phenyl salicylate, indium, tin and zinc. The adjustment is then verified with octane, phenyl salicylate, indium, tin, and zinc. The sample was placed into a hermetically sealed aluminum DSC pan, the weight was accurately recorded, and the sample was inserted into the DSC cell. A weighed aluminum pan configured as the sample pan was placed on the reference side of the cell. The pan lid was pierced prior to sample analysis. […]
A cycling DSC experiment was conducted for as-received amorphous, in which the sample was analyzed from −25° C. to 200° C., then cooled to −25° C. and reheated to 250° C. at 10° C./min.

[3] = X-ray powder diffraction (XRPD)
Method: XRPD patterns were collected with a PANalytical X'Pert PRO MPD or a PANalytical Empyrean diffractometer using an incident beam of Cu radiation produced using an Optix long, fine-focus source. An elliptically graded multilayer mirror was used to focus Cu Kα X-rays through the specimen and onto the detector. Prior to the analysis, a silicon specimen (NIST SRM 640e or 640f) was analyzed to verify the observed position of the Si 111 peak is consistent with the NIST-certified position. A specimen of the sample was sandwiched between 3-μm-thick films and analyzed in transmission geometry. […]
XRPD patterns were collected with a PANalytical X'Pert PRO MPD diffractometer using an incident beam of Cu Kα radiation produced using a long, fine-focus source and a nickel filter. […] Prior to the analysis, a silicon specimen (NIST SRM 640e or 640f) was analyzed to verify the observed position of the Si 111 peak is consistent with the NIST-certified position. […]
XRPD patterns were collected with a PANalytical X'Pert PRO MPD or a PANalytical Empyrean diffractometer using an incident beam of Cu radiation produced using an Optix long, fine-focus source. […] Prior to the analysis, a silicon specimen (NIST SRM 640e or 640f) was analyzed to verify the observed position of the Si 111 peak is consistent with the NIST-certified position. […]

[4] = Approximate solubility of the starting material at 25° C. and 50° C.
Method: About 10 mg of drug substance was weighed to a 2 mL glass vial and aliquot of 20 μL of each solvent will be added to determine solubility at 50° C. Approximate solubility was determined by visual observation.

[5] = as above; remark: listed apart in the source

## CCC(=O)[O][Mn][O]C(=O)CC.c1cc2nc(c1)CN[C@H]1CCCC[C@@H]1NCCN[C@H]1CCCC[C@@H]1NC2 [Form 8429-39-01]
[1]; amorphous material (pale light yellow) after held @ 100° C., 5 min.
  Observation: 3. peach in color

## CCC(=O)[O][Mn][O]C(=O)CC.c1cc2nc(c1)CN[C@H]1CCCC[C@@H]1NCCN[C@H]1CCCC[C@@H]1NC2 [Form 8429-73-01]
[2]
  DSC endotherm onset: endotherm onset of 232 °C

## CCC(=O)[O][Mn][O]C(=O)CC.c1cc2nc(c1)CN[C@H]1CCCC[C@@H]1NCCN[C@H]1CCCC[C@@H]1NC2 [Sample 8429-73-01]
[3]
  XRPD Result: Form E + peaks
[2]
  DSC minor endotherm: minor endotherm near 197 °C

## CCC(=O)[O][Mn][O]C(=O)CC.c1cc2nc(c1)CN[C@H]1CCCC[C@@H]1NCCN[C@H]1CCCC[C@@H]1NC2 [Sample 8429-84-01]
[1]; 8429-79-01 and 8429-79-02, Form A + E combined and stored over P2O5, 5 days
  Result (form): E + A

## CCC(=O)[O][Mn][O]C(=O)CC.c1cc2nc(c1)CN[C@H]1CCCC[C@@H]1NCCN[C@H]1CCCC[C@@H]1NC2 [Sample 8429-97-03]
[1]; P2O5, 4 days
  Result (form): E + A

## CCC(=O)[O][Mn][O]C(=O)CC.c1cc2nc(c1)CN[C@H]1CCCC[C@@H]1NCCN[C@H]1CCCC[C@@H]1NC2 [Sample 8516-07-01]
[1]; 8429-97-01 Forn E + Form A, vacuum dried, ambient, 2 days
  Result (form): peaks

## CCC(=O)[O][Mn][O]C(=O)CC.c1cc2nc(c1)CN[C@H]1CCCC[C@@H]1NCCN[C@H]1CCCC[C@@H]1NC2 [drug substance]
[4]; 1,4-Dioxane
  Solubility: S > 259.5 mg/mL
[4]; 2-Propanol
  Solubility: S > 292.5 mg/mL
[4]; Acetonitrile
  Solubility: S > 315.5 mg/mL
[4]; Dichloromethane
  Solubility: S > 278.5 mg/mL
[4]; Ethanol
  Solubility: S > 281.5 mg/mL
[4]; Methanol
  Solubility: S > 332.0 mg/mL
[4]; Tetrahydrofuran
  Solubility: S > 319.0 mg/mL
[4]; Water
  Solubility: S > 337.5 mg/mL
[5]; 2-Propanol, 25° C.
  Solubility: S > 285.5 mg/mL
[5]; Dichloromethane, 25° C.
  Solubility: S > 297.5 mg/mL
[5]; Ethanol, 25° C.
  Solubility: S > 322.5 mg/mL
[5]; Heptane, 25° C.
  Solubility: S < 3.7 mg/mL
[5]; Heptane, 50° C.
  Solubility: S < 3.7 mg/mL
[5]; Methanol, 25° C.
  Solubility: S > 306.0 mg/mL
[5]; Tetrahydrofuran, 25° C.
  Solubility: S > 319.0 mg/mL
[5]; Water, 25° C.
  Solubility: S > 314.5 mg/mL
